Experimental data published in patent publication US6752986B2, “Composition and methods for affecting metallocorrinoid uptake” (The Cleveland Clinic Foundation, priority 2001, dated 2004).

What was measured:
NCTC929 = conditions: NCTC929, high levels of Cbl; cited from earlier work
P388D1 = conditions: P388D1, high levels of Cbl; cited from earlier work
L1210 = conditions: L1210, high levels of Cbl; cited from earlier work
CCRF-CEM = conditions: high levels of Cbl; cited from earlier work
[1] = tested on: NIH-OVCAR-3 ovarian carcinoma; test: SRB anti-proliferative cell survival assay, NIH-OVCAR-3; assay type: cell-based, human; conditions: concentration used in the Annexin V assay for 48 hrs
[2] = tested on: subcutaneous NIH-OVCAR-3 tumors; test: Intraperitoneal NO-Cbl treatment of established subcutaneous NIH-OVCAR-3 tumors; assay type: in vivo, nude mice
[3] = tested on: five human hematological and eight solid tumor cell lines; conditions: cited from earlier work
WM9 human melanoma = test: SRB anti-proliferative cell survival assay, WM9; assay type: cell-based; conditions: WM9 versus NIH-OVCAR-3
Protocol: WM9 human melanoma was evaluated after 4 days growth.
Cells (2×10^3) were seeded in 96-well plates. Data points represent mean of eight replicates. (n=8). A control plate was fixed 4 hr after seeding (to allow cells to attach) to determine the initial seeding density (Aini). This was defined as 0% growth. To the wells of the seeded experimental plate, IFN-β was added and incubation continued for 3-5 days. Untreated cell controls were included. Growth obtained with this control was defined as 100% (Afin). To determine cell number, cells were fixed with 10% trichloroacetic acid at 4° C. for 1 h. They were stained with 0.4% sulforhodamine B prepared in 1% acetic acid at 25° C. for 1 h (27). The wells were washed with 1% acetic acid. Bound dye was eluted with 100 μl of 10 mM Tris-HCl, ph 10.5 and quantitated in a microplate reader at 570 nm. Growth in IFN-β-treated wells (experimental=exp) was expressed as a percentage of untreated control growth (mean±SEM).
%Control growth=100%×(Aexp−Aini)/(Afin−Aini)
%STD=100%×(STDexp/(Afin−Aini))
%SEM=100%×(SEMexp/(Afin−Aini) ) where SEM=STD/✓n

Molecule | cell proliferation (NCTC929) | cell proliferation (P388D1) | cell proliferation (L1210) | cell proliferation (CCRF-CEM) | ID25 [1] [µM] | mean volume of untreated tumors compared to NO-Cbl treated tumors ([2]; at the end of the study) [fold] | decrease in volume of treated tumors ([2]; during the treatment period) [fold] | tumor response ([2]; intraperitoneal NO-Cbl, established subcutaneous NIH-OVCAR-3 tumors) | ID50 lower in tumor cell lines compared to benign cells (fibroblasts and endothelial cells) [3] | ID50 of WM9 cells compared to NIH-OVCAR-3 (WM9 human melanoma)
C/C1=C2/[N-][C@H]([C@H](CC(N)=O)[C@@]2(C)CCC(=O)NC[C@@H](C)OP(=O)([O-])O[C@H]2[C@@H](O)[C@@H](n3cnc4cc(C)c(C)cc43)O[C@@H]2CO)[C@]2(C)N=C(/C(C)=C3N=C(/C=C4N=C1[C@@H](CCC(N)=O)C\4(C)C)[C@@H](CCC(N)=O)[C@]\3(C)CC(N)=O)[C@@H](CCC(N)=O)[C@]2(C)CC(N)=O.[Co] [Cbl, cobalamin] | inhibited | inhibited | inhibited | inhibited | – | – | – | – | – | –
Nitrosylcobalamin [NO-Cbl] | – | – | – | – | 10 | 18 | 4 | tumor regression | 5-100 fold | higher ID50
